Laboratory results taken from patent publication US10251902B2, “Pharmaceutical composition for treating or preventing neuropsychiatric disease, containing flavone-6-C-glucose derivatives as active ingredients” (priority 2013, dated 2019).

Tested on: model of memory impairment induced by scopolamine
Experiment: Y-maze test in scopolamine-treated mice
Type: in vivo, ICR mice
Conditions: scopolamine 1 mg/Kg i.p.; for Alternation Behavior (%): Table 6, 8 minutes in Y-maze; for Total Entry: Table 7, total number of entry to each branch, 8 minutes
Procedure: An experiment was conducted to confirm effects of swertisin or isoorientin, and extracts of Swertia pseudochinensis or Swertia japonica containing the same prepared in Examples 1 to 3 in treating dementia by using a model of memory impairment induced by scopolamine. Detailed method follows.
Six-week old ICR mice in about 26 g to 28 g (Orientbio Inc, Republic of Korea) were received water and feed without constraint and adapted for 5 days under an environment having about 23±1° C. of temperature, about 60±10% of humidity and 12-hour light/dark cycle (animal laboratory at College of Pharmacy, Kyung-Hee University), and then used for the experiment.
A Y-maze was prepared for the experiment. The Y-maze has 3 branches and each branch has 42 cm of length, 3 cm of width and 12 cm of height. Angle between any two arms is 120 degrees and the arms were made of black polyvinyl resin.
The mice prepared in the above 1) were separated into 5 groups (10 mice per each group) comprised of drug administration groups 1 and 2, and controls 1 to 3.
The swertisin prepared in Example 3 (8 mg) was dissolved in 4 mL of 10% Tween 80 (Polyoxyethylene sorbitan monooleate: Sigma, U.S.A.), and administered to the drug administration groups 1 and 2 in an amounts of 5 mg/Kg and 10 mg/Kg respectively. Meanwhile, 5 mg/Kg of donepezil was administered to the control 1, and 0.15 mL of 10% Tween 80 was administered to the controls 2 and 3 respectively.
About 30 minutes later, 1 mg/Kg of scopolamine, which was dissolved in distilled water, was intraperitoneally administered to the drug administration groups 1 and 2, and controls 1 and 2 (Ebert, U. et al., Eur. J. Clin. Invest., 28, pp. 944-949, 1998), and 0.9% of saline solution was intraperitoneally administered to the control 3.
After 30 minutes, mice of the drug administration groups 1 and 2, and the controls 1-3 were carefully located on each branches of the Y-maze, which was divided as A, B and C respectively, and let the mice move freely for 8 minutes, and then recorded branches where mice have entered. The entrance was recorded when the entire body (i.e. including the tail) has completely entered. It was also recorded when the mice entered again into the branch that the mice have entered before.
One point was scored when the mouse sequentially entered into 3 different branches (actual alternation). Alternation behavior is defined as sequentially entering into every 3 branch, and it was converted into % via Equation 1 below (Sarter, M. et al., Psychopharmacology., 94, pp. 491-495, […]).

COc1cc2oc(-c3ccc(O)cc3)cc(=O)c2c(O)c1[C@@H]1O[C@H](CO)[C@@H](O)[C@H](O)[C@H]1O [swertisin]
Alternation Behavior (%) (swertisin 5 mg/kg): 56.22 ± 12.29%
Alternation Behavior (%) (swertisin 10 mg/kg): 59.36 ± 5.653%
Total Entry (swertisin 5 mg/kg): 27.10 ± 7.795
Total Entry (swertisin 10 mg/kg): 28.88 ± 4.155
